Data taken from patent US8716295B2, “Fluoroquinolone derivatives or sulfonamide moiety-containing compounds as inhibitors of tyrosyl-dnaphosphodiesterase (TDP1)” (priority 2010, dated 2014).
“Also recorded” adds a separate entry of the source. Like-named read-outs stand apart in the source and are kept apart here.

Columns and labels:
recombinant Tdp1 = recombinant Tdp1 (Homo sapiens, UniProt Q9NUW8); assay: Gel-based Tdp1 catalytic activity inhibition assay (5'-32P-labeled N14Y DNA substrate, denaturing PAGE); format: biochemical; settings: for IC50: 0.2 nmol/L recombinant Tdp1, 1 nmol/L N14Y substrate, 15 min, room temperature
Method: 5′-^32P-labeled DNA substrate (1 nmol/L; N14Y; 5′-[…]-pY-3′) was incubated with 0.2 nmol/L recombinant Tdp1 in the absence or presence of inhibitor for 15 min at room temperature in an assay buffer containing 1×PBS, pH 7.4, 80 mmol/L KCl and 0.01% Tween-20. Reactions were terminated by the addition of 1 volume of gel loading buffer [99.5% (v/v) formamide, 5 mmol/L EDTA, 0.01% (w/v) xylene cyanol, and 0.01% (w/v) bromophenol blue]. Samples were subjected to a 16% denaturing PAGE and gels were exposed after drying to a PhosphorImager screen (GE Healthcare). Gel images were scanned using a Typhoon 8600 (GE Healthcare) and densitometric analyses were performed using the ImageQuant software package (GE Healthcare).

[1] = test system: human osteosarcoma U2OS cells; assay: Cytotoxicity/proliferation (MTS) assay for synergy with camptothecin; format: cell-based; settings: 72 hours, NF-SDM at 3, 6 and 12 μM
Method: U2OS cells (Developmental Therapeutics Program, NCI) were plated at 3×10^3 cells in a total volume of 100 μl per well in a 96 well plate and incubated at 37° C./5% CO2 for 24 hours prior to drug treatment. CPT and another drug of interest (both in DMSO stock solution) were prepared at double the desired concentration, and serially diluted in cells' media. After medium was aspirated off cells, 50 μl of CPT was plated down each column at four-fold dilutions in subsequent columns and 50 μl of another drug of interest was plated across rows, at two-fold dilutions in subsequent rows. A single drug dose response was also included for each drug tested, to which 50 μl of regular media was added to reconstitute a final volume of 100 μl in each well. Plates were further incubated for 72 hours and proliferation was assayed by adding 20 μl of 3-(4,5-dimethylthiazol-2-yl)-5-(3 carboxymethoxyphenyl)-2-(4-sulfophenyl)-2H-tetrazolium (MTS) Cell Titer Reagent (Promega) to each well. Plates were lightly mixed and placed back into the incubator until the appropriate color change occurred (˜1 hr), at which point plates were read on a Molecular Device Gemini fluorescence plate reader at an absorbance of 490 nm for cell viability. Raw data were plotted using GraphPad Prism and compared to each sample's control (GraphPad Software Inc.).

[2] = read-out: unable to inhibit Tdp1 / inactive at concentrations up to

recombinant Tdp1, sequence (Q9NUW8 whole entry): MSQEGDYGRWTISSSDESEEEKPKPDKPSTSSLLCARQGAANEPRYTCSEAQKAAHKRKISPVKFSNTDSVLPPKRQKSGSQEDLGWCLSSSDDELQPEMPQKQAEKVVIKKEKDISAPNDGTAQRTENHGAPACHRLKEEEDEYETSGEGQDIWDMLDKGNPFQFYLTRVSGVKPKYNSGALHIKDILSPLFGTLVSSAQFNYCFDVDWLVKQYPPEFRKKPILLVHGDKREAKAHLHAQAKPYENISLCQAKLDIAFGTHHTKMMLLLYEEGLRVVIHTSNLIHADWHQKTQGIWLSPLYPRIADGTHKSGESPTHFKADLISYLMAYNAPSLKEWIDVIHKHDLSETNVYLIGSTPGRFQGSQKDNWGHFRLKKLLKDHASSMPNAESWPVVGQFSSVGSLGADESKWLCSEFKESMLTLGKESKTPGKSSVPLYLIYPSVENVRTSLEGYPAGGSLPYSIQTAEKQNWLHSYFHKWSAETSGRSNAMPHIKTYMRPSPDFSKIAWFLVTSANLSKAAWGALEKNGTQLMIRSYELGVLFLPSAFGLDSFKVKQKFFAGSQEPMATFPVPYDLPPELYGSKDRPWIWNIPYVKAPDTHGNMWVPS

Row | IC50 (recombinant Tdp1; [2]) [µM] | Structure (SMILES) | Tdp1 inhibitory activity (in words) (recombinant Tdp1) | IC50 (recombinant Tdp1; read-out: inhibit Tdp1 catalytic activity (IC50 Tdp1 inhibition)) [µM] | synergy with the TopI poison camptothecin (CPT) on cell growth/viability [1]
1 | – | CCn1cc(C(=O)O)c(=O)c2cc(F)c(N3CCN(CNc4ccc(S(=O)(=O)Nc5nc(C)cc(C)n5)cc4)CC3)cc21 [NF-SDM] | nanomolar range | 0.005 | synergize with CPT; also recorded: synergistic effect; also recorded: acts synergistically
2 | > 333 | COc1c(N2CCNC(C)C2)c(F)cc2c(=O)c(C(=O)O)cn(C3CC3)c12 (stereo not shown) [gatifloxacin] | – | – | –
3 | > 333 | CCn1cc(C(=O)O)c(=O)c2cc(F)c(N3CCNCC3)cc21 [norfloxacin] | – | – | –
4 | > 333 | Cc1cc(C)nc(NS(=O)(=O)c2ccc(N)cc2)n1 [sulfadimidine] | does not inhibit Tdp1 | – | –
